Columns and labels:
[1] = molecular target: 5-hydroxytryptamine receptor 4 (Rattus norvegicus) (UniProt Q62758); test: Compound was tested against 5-HT4 receptor through antagonism of 5-HT mediated relaxation of rat, carbachol contracted esophageal muscularis mucosae; format: functional
[2] = molecular target: 5-hydroxytryptamine receptor 4 (Cavia porcellus, UniProt O70528); test: Compound was tested for binding affinity against 5-HT4 receptor in guinea pig striata using [3H]GR-113808 as radioligand
Chain of 5-hydroxytryptamine receptor 4 (Cavia porcellus, UniProt O70528) (O70528 whole entry): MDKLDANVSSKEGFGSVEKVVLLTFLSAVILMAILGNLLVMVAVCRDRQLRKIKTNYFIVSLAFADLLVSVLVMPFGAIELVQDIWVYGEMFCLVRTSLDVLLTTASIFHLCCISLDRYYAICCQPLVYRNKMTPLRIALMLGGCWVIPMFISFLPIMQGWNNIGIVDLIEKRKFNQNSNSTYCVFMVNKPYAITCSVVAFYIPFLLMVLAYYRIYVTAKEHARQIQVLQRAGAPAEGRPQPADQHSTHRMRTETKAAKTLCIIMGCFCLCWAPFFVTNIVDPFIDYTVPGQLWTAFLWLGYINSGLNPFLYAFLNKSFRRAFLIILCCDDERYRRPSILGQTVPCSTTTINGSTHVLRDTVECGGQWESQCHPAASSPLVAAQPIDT

[3] = molecular target: 5-hydroxytryptamine receptor 4 (Rattus norvegicus, UniProt Q62758); test: Compound was tested against 5-HT4 receptor through agonism of 5-HT mediated relaxation of rat, carbachol contracted esophageal muscularis mucosae; format: functional
Chain of 5-hydroxytryptamine receptor 4 (Rattus norvegicus, UniProt Q62758) (Q62758 whole entry): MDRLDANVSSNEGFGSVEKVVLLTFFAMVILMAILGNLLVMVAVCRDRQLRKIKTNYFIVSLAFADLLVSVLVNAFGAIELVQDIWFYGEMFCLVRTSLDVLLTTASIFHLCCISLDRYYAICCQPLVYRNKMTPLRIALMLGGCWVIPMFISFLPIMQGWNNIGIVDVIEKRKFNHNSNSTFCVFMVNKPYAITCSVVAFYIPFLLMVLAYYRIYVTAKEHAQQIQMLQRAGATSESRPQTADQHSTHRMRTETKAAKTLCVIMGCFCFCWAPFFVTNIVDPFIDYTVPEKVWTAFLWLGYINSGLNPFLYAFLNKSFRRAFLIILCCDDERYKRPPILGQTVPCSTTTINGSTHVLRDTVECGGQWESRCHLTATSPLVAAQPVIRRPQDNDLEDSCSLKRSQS

Chain of 5-hydroxytryptamine receptor 4 (Rattus norvegicus) (Q62758 whole entry): as above

Row | Compound | pKb [1] | Ki [2] | EC50 [3]
1 | COc1cc(COc2cc(N)c(Cl)cc2C(=O)CCCCN2CCC(OC)CC2)cc(OC)c1 | 8.4 |  | 
2 | CCCCN1CCC(COC(=O)c2cc(Cl)c(N)c3c2OCCO3)CC1 |  | 0.0129 nM | 
3 | CCOc1cc(N)c(Cl)cc1C(=O)CCCCN1CCCCC1 | < 7 |  | 
4 | COc1ccc(COc2cc(N)c(Cl)cc2C(=O)CCCCN2CCCCC2)cc1 | 8.4 |  | 
5 | COc1ccc(CCOc2cc(N)c(Cl)cc2C(=O)CCCCN2CCCCC2)cc1OC | 6.8 |  | 
6 | COc1cc(COc2cc(N)c(Cl)cc2C(=O)CCCCN2CCC(NC(N)=O)CC2)cc(OC)c1 | 8.5 |  | 
7 | COc1cc(COc2cc(N)c(Cl)cc2C(=O)CCCCN2CCC(C(N)=O)CC2)cc(OC)c1 | 8.4 |  | 
8 | COc1cc(COc2cc(N)c(Cl)cc2C(=O)CCCCN2CCCCC2)cc(OC)c1 | 8.5 |  | 
9 | COc1cc(N)c(Cl)cc1C(=O)CCCCN1CCCCC1 |  |  | 39.8 nM
10 | COc1ccc(COc2cc(N)c(Cl)cc2C(=O)CCCCN2CCCCC2)cc1OC | 8.5 |  | 
11 | Cn1cc(C(=O)OCC2CCN(CCNS(C)(=O)=O)CC2)c2ccccc21 | 9 |  | 
12 | CS(=O)(=O)NCCN1CCC(CCC(=O)c2cc(Cl)c(N)cc2OCc2ccccc2)CC1 | 8.1 | 1.78 nM | 
13 | COc1cc(COc2cc(N)c(Cl)cc2C(=O)CCCCN2CCC(c3ccccc3)CC2)cc(OC)c1 | 7.7 |  | 
14 | CCCOc1cc(N)c(Cl)cc1C(=O)CCCCN1CCCCC1 |  |  | 2000 nM

Second part, the molecule after the results:

Row | pKb [1] | Ki [2] | EC50 [3] | Compound
15 | 8.1 |  |  | COc1cc(COc2cc(N)c(Cl)cc2C(=O)CCCCN2CCC(CCNS(C)(=O)=O)CC2)cc(OC)c1
16 | 8.9 | 0.479 nM |  | CCCCN1CCC(CCC(=O)c2cc(Cl)c(N)cc2OCc2cc(OC)cc(OC)c2)CC1
17 | 8.9 |  |  | COc1cc(COc2cc(N)c(Cl)cc2C(=O)CCCCN2CCC(CNS(C)(=O)=O)CC2)cc(OC)c1
18 | 8.3 |  |  | COc1cc(COc2cc(N)c(Cl)cc2C(=O)CCCCN2CCC(O)CC2)cc(OC)c1
19 | 9.1 | 0.813 nM |  | CCCCCN1CCC(CCC(=O)c2cc(Cl)c(N)cc2OCc2cc(OC)cc(OC)c2)CC1
20 | 7.7 |  |  | CCCC1CCN(CCCCC(=O)c2cc(Cl)c(N)cc2OCc2cc(OC)cc(OC)c2)CC1
21 | 9.2 | 0.741 nM |  | COc1cc(COc2cc(N)c(Cl)cc2C(=O)CCC2CCN(CCNS(C)(=O)=O)CC2)cc(OC)c1
22 | 8.3 |  |  | COc1cc(COc2cc(N)c(Cl)cc2C(=O)CCCCN2CCC(C)CC2)cc(OC)c1
23 | 8.4 |  |  | COc1cc(COc2cc(N)c(Cl)cc2C(=O)CCCCN2CCC(NS(C)(=O)=O)CC2)cc(OC)c1
24 | 9.1 | 0.468 nM |  | COc1cc(COc2cc(N)c(Cl)cc2C(=O)CCC2CCN(CCN(C)S(C)(=O)=O)CC2)cc(OC)c1
25 | 8.8 | 0.339 nM |  | COc1cc(COc2cc(N)c(Cl)cc2C(=O)CCC2CCN(CCCNS(C)(=O)=O)CC2)cc(OC)c1

From ChEMBL document CHEMBL1152051, “Synthesis and preliminary pharmacological evaluation of 2-benzyloxy substituted aryl ketones as 5-HT4 receptor antagonists” (Bioorg Med Chem Lett, 1994)
